Measurements from patent US10407410B2, “Pyridin-3-yl acetic acid derivatives as inhibitors of human immunodeficiency virus replication” (priority 2016, dated 2019).

Tested on: NL-RLuc virus (HIV)
Experiment: Inhibition of HIV replication (NL-RLuc luciferase reporter virus in MT-2 cells)
Format: cell-based
Details: Human immunodeficiency virus 1, MT2, 120 h
Description: Inhibition of HIV Replication
A recombinant NL-RLuc proviral clone was constructed in which a section of the nef gene from NL4-3 was replaced with the Renilla Luciferase gene. This virus is fully infectious and can undergo multiple cycles of replication in cell culture. In addition, the luciferous reporter provides a simple and easy method for quantitating the extent of virus growth and consequently, the antiviral activity of test compounds. The plasmid pNLRLuc contains the proviral NL-Rluc DNA cloned into pUC18 at the PvuII site. The NL-RLuc virus was prepared by transfection of 293T cells with the plasmid pNLRLuc. Transfections were performed using the LipofectAMINE PLUS kit from Invitrogen (Carlsbad, Calif.) according to the manufacturer and the virus generated was titered in MT-2 cells. For susceptibility analyses, the titrated virus was used to infect MT-2 cells in the presence of compound, and after 5 days of incubation, cells were processed and quantitated for virus growth by the amount of expressed luciferase. Assay media was RPMI 1640 supplemented with 10% heat inactivated fetal bovine serum (FBS), 100 units/ml penicillin G/100 units/ml streptomycin, 10 mM HEPES buffer pH 7.55 and 2 mM L-glutamine. The results from at least 2 experiments were used to calculate the EC50 values. Luciferase was quantitated using the Dual Luciferase kit from Promega (Madison, Wis.). Susceptibility of viruses to compounds was determined by incubation in the presence of serial dilutions of the compound. The 50% effective concentration (EC50) was calculated by using the exponential form of the median effect equation where (Fa)=1/[1+(ED50/drug conc.)^m] (Johnson V A, Byington R T. Infectivity Assay. In Techniques in HIV Research. ed. Aldovini A, Walker B D. 71-76. New York: Stockton Press. 1990).

Structure (SMILES)	EC50
Cc1nc(C)c([C@H](OC(C)(C)C)C(=O)O)c(N2CCC(C)(C)CC2)c1-c1ccc2ccncc2c1 [Example 1, (S)-2-(tert-Butoxy)-2-(4-(4,4-dimethylpiperidin-1-yl)-5-(isoquinolin-7-yl)-2,6-dimethylpyridin-3-yl)acetic acid]	47 nM
Cc1nc(C)c([C@H](OC(C)(C)C)C(=O)O)c(N2CCC(C)(C)CC2)c1-c1cnc2ccccc2c1 [Example 2, (S)-2-(tert-butoxy)-2-(4-(4,4-dimethylpiperidin-1-yl)-2,6-dimethyl-5-(quinolin-3-yl)pyridin-3-yl)acetic acid]	73 nM
Cc1nc(C)c([C@H](OC(C)(C)C)C(=O)O)c(N2CCC(C)(C)CC2)c1-c1ccc2c(c1)OCCO2 [Example 3, (S)-2-(tert-butoxy)-2-(5-(2,3-dihydrobenzo[b][1,4]dioxin-6-yl)-4-(4,4-dimethylpiperidin-1-yl)-2,6-dimethylpyridin-3-yl)acetic acid]	101 nM
Cc1nc(C)c([C@H](OC(C)(C)C)C(=O)O)c(N2CCC(C)(C)CC2)c1-c1ccc2cc[nH]c2c1 [Example 4, (S)-2-(tert-butoxy)-2-(4-(4,4-dimethylpiperidin-1-yl)-5-(1H-indol-6-yl)-2,6-dimethylpyridin-3-yl)acetic acid]	233 nM
Cc1nc(C)c([C@H](OC(C)(C)C)C(=O)O)c(N2CCC(C)(C)CC2)c1-c1ccc2c(c1)CCC2 [Example 5, (S)-2-(tert-butoxy)-2-(5-(2,3-dihydro-1H-inden-5-yl)-4-(4,4-dimethylpiperidin-1-yl)-2,6-dimethylpyridin-3-yl)acetic acid]	56 nM
Cc1nc(C)c([C@H](OC(C)(C)C)C(=O)O)c(N2CCC(C)(C)CC2)c1-c1ccc2sc(C(=O)O)cc2c1 [Example 6, (S)-5-(5-(tert-butoxy(carboxy)methyl)-4-(4,4-dimethylpiperidin-1-yl)-2,6-dimethylpyridin-3-yl)benzo[b]thiophene-2-carboxylic acid]	66000 nM
Cc1nc(C)c([C@H](OC(C)(C)C)C(=O)O)c(N2CCC(C)(C)CC2)c1-c1coc2ccccc12 [Example 7, (2S)-2-(5-(benzofuran-3-yl)-4-(4,4-dimethylpiperidin-1-yl)-2,6-dimethylpyridin-3-yl)-2-(tert-butoxy)acetic acid]	288 nM
Cc1nc(C)c([C@H](OC(C)(C)C)C(=O)O)c(N2CCC(C)(C)CC2)c1-c1ccc2[nH]c(=O)[nH]c2c1 [Example 8, (S)-2-(tert-butoxy)-2-(4-(4,4-dimethylpiperidin-1-yl)-2,6-dimethyl-5-(2-oxo-2,3-dihydro-1H-benzo[d]imidazol-5-yl)pyridin-3-yl)acetic acid]	7060 nM
Cc1nc(C)c([C@H](OC(C)(C)C)C(=O)O)c(N2CCC(C)(C)CC2)c1-c1ccc2c(c1)OCCN2C [Example 9, (S)-2-(tert-butoxy)-2-(4-(4,4-dimethylpiperidin-1-yl)-2,6-dimethyl-5-(4-methyl-3,4-dihydro-2H-benzo[b][1,4]oxazin-7-yl)pyridin-3-yl)acetic acid]	87 nM
Cc1nc(C)c([C@H](OC(C)(C)C)C(=O)O)c(N2CCC(C)(C)CC2)c1-c1ccc2c(c1)CCNC2=O [Example 10, (S)-2-(tert-butoxy)-2-(4-(4,4-dimethylpiperidin-1-yl)-2,6-dimethyl-5-(1-oxo-1,2,3,4-tetrahydroisoquinolin-6-yl)pyridin-3-yl)acetic acid]	307 nM
Cc1nc(C)c([C@H](OC(C)(C)C)C(=O)O)c(N2CCC(C)(C)CC2)c1-c1ccc2c(c1)CNC2=O [Example 11, (S)-2-(tert-butoxy)-2-(4-(4,4-dimethylpiperidin-1-yl)-2,6-dimethyl-5-(1-oxoisoindolin-5-yl)pyridin-3-yl)acetic acid]	1680 nM
Cc1nc(C)c([C@H](OC(C)(C)C)C(=O)O)c(N2CCC(C)(C)CC2)c1-c1ccc2[nH]c(=O)cc(O)c2c1 [Example 12, (S)-2-(tert-butoxy)-2-(4-(4,4-dimethylpiperidin-1-yl)-5-(4-hydroxy-2-oxo-1,2-dihydroquinolin-6-yl)-2,6-dimethylpyridin-3-yl)acetic acid]	4960 nM
